Data taken from patent EP0751768B1, “ANTI-VIRAL AND ANTI-CANCER AGENT” (Radopath Pharmaceuticals International Limited, priority 1994, dated 1995).
Values joined by “and” are separate entries in the source; they are usually repeats but may differ in a detail not shown here. Identical values can stand only once.

How the values were obtained:
HIV-1RF = experiment: microbe, parasite or virus in culture; format: cell-based, human immunodeficiency virus HIV-1RF
B16F1-murine melanoma = format: in vivo; conditions: mouse, in vivo
HIV-I IIIB = experiment: Acute infection assay, HIV core antigen ELISA (HIV-I IIIB); format: cell-based
[1] = system: MAC16, murine colon adenocarcinoma; experiment: Anti-tumour activity against MAC16 (tumour weight inhibition); format: in vivo; conditions: for % Tumour Weight Inhibition: sc transplanted, day 11 after the beginning of treatment, tumour volumes at least 40mm^3 at start, corn oil
Description: (§1) The in vivo anti-tumour responses of the compound according to the invention were assessed against the ascitic tumours, MAC15A murine colon adenocarcinoma and various solid tumour models. The MAC15A ascites tumour cells were transplanted into male NMR1 mice by ip innoculation at a cell density of 1 x 10^5 cells in 200µl buffer (Table I). The solid tumour models included the MAC13 and MAC16 murine colon adenocarcinomas, the B16 F1 murine melanoma and the M5076 reticulum cell sarcoma.
(§2) Treatment commenced 3 days after ip transplant or, in the case of solid tumours such as MAC13 and MAC16, treatment commenced when average tumour volumes reached 40mm^3.
(§3) The animals were located in both cases into groups of 5 to 8 animals.
(§4) The animals were sacrificed after 12 days or when tumours ulcerated, tumour volume exceeded 1000mm^3 or loss of body weight exceeded 50%.
(§5) Except where otherwise stated, the compound used was dissolved in DMSO and diluted in sterile distilled water, at appropriate concentrations before administration in a solvent volume of 200µl. Anti-tumour responses were obtained by comparing the median survival times or tumour growth inhibition against solvent controls.
(§6) % Tumour Weight Inhibition:-

[2] = system: Chronically infected cells (H9rf); experiment: Chronically infected cell assay, HIV-1 antigen ELISA; format: cell-based; conditions: Against Chronically infected cells
uninfected H9 cells = experiment: Toxicity in uninfected H9 cells, 14C protein hydrolysate incorporation, four days; format: cell-based; conditions: listed under Against Chronically infected cells; average of the lines above
Description: • (i) Acute Infection Assay. High titre virus stocks of the human immunodeficiency virus HIV-1RF were grown in H9 cells with RM1 1640 (Flow laboratories) supplemented with 10% fetal calf serum, penicillin (100IU/ml). Cell debris was removed by low speed centrifugation, and the supernatant stored at -70°C until required. In a typical assay C8166 T-lymphoblastoid CD4+ cells were incubated with 10xTCID50 HIV-1RF at 37°C for 90 minutes and then washed three times with phosphate buffered saline (PBS). Cell aliquots (2 x 10^5) were resuspended in 1.5ml growth medium in 6ml tubes, and active compounds in log dilutions [200µM to 0.2µM] were added immediately. 20mM stock solutions of each compound were made up in 70% alcohol. The compounds were stored as a powder and made up freshly in distilled water before each experiment or were stored as a […] stock solution in 70% alcohol. The final concentration of alcohol in the tissue culture medium was 1%. The cells were then incubated at 37°C in 5% CO2. […] The ELISA plates were read with a spectrophotometer. […] HIV-1 antigen in the supernatant was then measured using an ELISA. […] After 6 hours the cells were harvested and the ^14C incorporation measured. • (iii) Toxicity Assay. […] After 12, hours the cells were harvested and the ^14C incorporation measured. […] Toxicity is expressed as inhibition of uptake of ^14C protein hydrolysate. […]

in vitro = conditions: CC50 (Toxicity)
[3] = system: M5076-reticulum cell sarcoma; experiment: Anti-tumour activity against M5076 solid tumour (tumour weight inhibition); format: in vivo, murine; conditions: for % Tumour Weight Inhibition: 16 days after im transplant, corn oil
Description: as §1, §2, §3, §4, §5, §6

[4] = system: MAC13 murine colon adenocarcinoma; experiment: Anti-tumour activity against MAC13 (tumour weight inhibition); format: in vivo; conditions: 12 days after im transplant, corn oil
Description: as §1, §2, §3, §4, §5, §6

[5] = system: MAC15A (murine adenocarcinoma colon); format: in vivo, NMR1 mice; conditions: mouse, in vivo, ip
[6] = Anti-tumour activity against M5076 solid tumour (tumour weight inhibition); format: in vivo, murine; conditions: mouse, in vivo; ip, per day, in corn oil; M5076 study; read-out: Maximum tolerated dose
Description: as §1, §2, §3, §4, §5, §6

SMILES: O=C(O)c1cc([N+](=O)[O-])c(Cl)c([N+](=O)[O-])c1Cl [C1, 2,4-dichloro-3,5-dinitrobenzoic acid]
- SI (Selectivity Index), Average (HIV-1RF): 5
- IC50 (HIV-1RF; Human immunodeficiency virus 1, C8166, read-out: IC50 (Antiviral), Average): 11.5 µM
- inhibition of tumour growth (in words) (B16F1-murine melanoma): effectively inhibited growth
- SI (Selectivity Index) (HIV-I IIIB): 2
- SI (Selectivity Index), Average (HIV-I IIIB): 3
- IC50 (HIV-I IIIB; Human immunodeficiency virus 1, IIIB, read-out: IC50 (Antiviral), Average): 27 µM
- % Tumour Weight Inhibition ([1]; 50 mg/kg per day ip, days 1,2,4,5,8): 91%
- % Tumour Weight Inhibition ([1]; 75 mg/kg per day ip, days 1,2,5,8): 88%
- inhibition of tumour growth (in words) ([1]; MAC16 murine colon adenocarcinoma): effectively inhibited growth
- SI (Selectivity Index), Average ([2]; average line): 4
- IC50 ([2]; Human immunodeficiency virus 1, 96 h, four days, single determinations, read-out: IC50 (Antiviral)): 16 µM
- CC50 (uninfected H9 cells): 63 µM
- CC50 (in vitro): 30 µM
- % Tumour Weight Inhibition ([3]; 25 mg/kg per day ip, days 1,2,4,6,9): 75%
- % Tumour Weight Inhibition ([3]; 25 mg/kg per day sc, days 1,2,4,5,6,7,9): 63%
- % Tumour Weight Inhibition ([3]; 50 mg/kg per day ip, days 1,4,6,9): 57%
- % Tumour Weight Inhibition ([3]; 50 mg/kg per day sc, days 1,2,4,5,6,7,9): 76%
- % Tumour Weight Inhibition ([3]; 75 mg/kg per day ip, days 1,4,6,9, listed as 2,4 BA): 79% and 88%
- % Tumour Weight Inhibition ([3]; 75 mg/kg per day sc, days 1,4,5,7,9): 66%
- activity on a split-dose schedule down to (dose) ([3]; by both ip and sc routes): 25 mg/kg body weight
- % Tumour Weight Inhibition ([4]; 50 mg/kg per day ip, days 1,2,3,4,5,6,7,8,9): 39%
- % Tumour Weight Inhibition ([4]; 75 mg/kg per day ip, days 1,4,5): 45%
- T/C% [5]: 243%

SMILES: COC(=O)c1cc([N+](=O)[O-])c(Cl)c([N+](=O)[O-])c1Cl [C3, 2,4-dichloro-3,5-dinitrobenzoic acid methyl ester]
- SI (Selectivity Index) (HIV-I IIIB): 23
- CC50 (uninfected cells): 7 µM
- MTD [6]: 1 mg/kg
- anti-tumour activity (in words) [3]: without anti-tumour activity
- % Tumour Weight Inhibition ([3]; 0.25 mg/kg per day ip, days 1,2,3,4,5,6,7,8,9): 42%
- % Tumour Weight Inhibition ([3]; 0.5 mg/kg per day ip, days 1,2,3,4,5,6,7,8,9): 39%
- % Tumour Weight Inhibition ([3]; 1.0 mg/kg per day ip, days 1,2,3,4,5,6,7,8,9): 41%
- increase in toxicity ([3]; relative to 2,4-dichloro-3,5-dinitrobenzoic acid): 10 fold
